This note sets out measurements from PubChem BioAssay AID1259407 (Chemical Carcinogenesis Research Information System (CCRIS), 2018).

Activity calls are given as the source filed them. How the calls were made is not given here.

This series relates to CCRIS mutagenicity, Ames/micronucleus/aberration tests. In words: CCRIS mutagenicity studies.
The mark [1] stands for this setting: Test System: AMES SALMONELLA TYPHIMURIUM, Strain/Indicator: TA98, Metabolic Activation: NONE, Method: STANDARD PLATE.
Where [2] appears, read: Test System: AMES SALMONELLA TYPHIMURIUM, Strain/Indicator: TA98, Metabolic Activation: RAT, LIVER, S-9, AROCLOR 1254, Method: STANDARD PLATE.
[3] abbreviates: Test System: AMES SALMONELLA TYPHIMURIUM, Strain/Indicator: TA100, Metabolic Activation: NONE, Method: STANDARD PLATE.
[4] abbreviates: Test System: AMES SALMONELLA TYPHIMURIUM, Strain/Indicator: TA100, Metabolic Activation: RAT, LIVER, S-9, AROCLOR 1254, Method: STANDARD PLATE.
Setting [5] is: Test System: AMES SALMONELLA TYPHIMURIUM, Strain/Indicator: TA97, Metabolic Activation: HAMSTER, LIVER, S-9, AROCLOR 1254 (10 OR 30%), Method: PREINCUBATION
[6] abbreviates: Test System: AMES SALMONELLA TYPHIMURIUM, Strain/Indicator: TA97, Metabolic Activation: NONE, Method: PREINCUBATION
[7] abbreviates: Test System: AMES SALMONELLA TYPHIMURIUM, Strain/Indicator: TA97, Metabolic Activation: RAT, LIVER, S-9, AROCLOR 1254 (10 OR 30%), Method: PREINCUBATION
Setting [8] is: Test System: AMES SALMONELLA TYPHIMURIUM, Strain/Indicator: TA98, Metabolic Activation: HAMSTER, LIVER, S-9, AROCLOR 1254 (10 OR 30%), Method: PREINCUBATION
[9] abbreviates: Test System: AMES SALMONELLA TYPHIMURIUM, Strain/Indicator: TA98, Metabolic Activation: NONE, Method: PREINCUBATION
Where [10] appears, read: Test System: AMES SALMONELLA TYPHIMURIUM, Strain/Indicator: TA98, Metabolic Activation: RAT, LIVER, S-9, AROCLOR 1254 (10 OR 30%), Method: PREINCUBATION
[11] abbreviates: Test System: AMES SALMONELLA TYPHIMURIUM, Strain/Indicator: TA100, Metabolic Activation: HAMSTER, LIVER, S-9, AROCLOR 1254 (10 OR 30%), Method: PREINCUBATION
Where [12] appears, read: Test System: AMES SALMONELLA TYPHIMURIUM, Strain/Indicator: TA100, Metabolic Activation: NONE, Method: PREINCUBATION
[13] abbreviates: Test System: AMES SALMONELLA TYPHIMURIUM, Strain/Indicator: TA100, Metabolic Activation: RAT, LIVER, S-9, AROCLOR 1254 (10 OR 30%), Method: PREINCUBATION
The mark [14] stands for this setting: Test System: AMES SALMONELLA TYPHIMURIUM, Strain/Indicator: TA1535, Metabolic Activation: HAMSTER, LIVER, S-9, AROCLOR 1254 (10 OR 30%), Method: PREINCUBATION
Setting [15] is: Test System: AMES SALMONELLA TYPHIMURIUM, Strain/Indicator: TA1535, Metabolic Activation: NONE, Method: PREINCUBATION
Where [16] appears, read: Test System: AMES SALMONELLA TYPHIMURIUM, Strain/Indicator: TA1535, Metabolic Activation: RAT, LIVER, S-9, AROCLOR 1254 (10 OR 30%), Method: PREINCUBATION
Setting [17] is: Test System: AMES SALMONELLA TYPHIMURIUM, Strain/Indicator: TA98, Metabolic Activation: HAMSTER, LIVER, S-9, AROCLOR 1254 (30%), Method: PREINCUBATION
The mark [18] stands for this setting: Test System: AMES SALMONELLA TYPHIMURIUM, Strain/Indicator: TA98, Metabolic Activation: RAT, LIVER, S-9, AROCLOR 1254 (30%), Method: PREINCUBATION
Where [19] appears, read: Test System: AMES SALMONELLA TYPHIMURIUM, Strain/Indicator: TA100, Metabolic Activation: HAMSTER, LIVER, S-9, AROCLOR 1254 (30%), Method: PREINCUBATION
[20] abbreviates: Test System: AMES SALMONELLA TYPHIMURIUM, Strain/Indicator: TA1537, Metabolic Activation: NONE, Method: PREINCUBATION

As to `O=CN(O)c1cccc(Cl)c1`, the mutagenic call reads like this: under setting [1], “inactive; negative”; under setting [2], “inactive; negative”; under setting [3], “inactive; negative”; under setting [4], “inactive; negative”.

Consider `CCOc1cc(N=Nc2ccc(N(CCO)CCO)cc2)ccc1N=Nc1c(S(=O)(=O)O)cc2ccc(N)cc2c1O`, for which the mutagenic call was “inactive; negative” under setting [1]; “active; positive” under setting [2]; “inactive; negative” under setting [3]; “inactive; negative” under setting [4]; “active; positive” (Test System: AMES SALMONELLA TYPHIMURIUM, Strain/Indicator: TA1538, Metabolic Activation: RAT, LIVER, S-9, AROCLOR 1254, Method: STANDARD PLATE).

On to `O=CNc1ccccc1`, for which the mutagenic call is “inactive; negative” under setting [5]; “inactive; negative” under setting [6]; “inactive; negative” under setting [7]; “inactive; negative” under setting [8]; “inactive; negative” under setting [9]; “inactive; negative” under setting [10]. Besides, the mutagenic call under setting [11] was “inactive; negative”; the mutagenic call under setting [12] was “inactive; negative”; the mutagenic call under setting [13] was “inactive; negative”; the mutagenic call under setting [14] is “inactive; negative”; the mutagenic call under setting [15] was “inactive; negative”; the mutagenic call under setting [16] is “inactive; negative”.

With `COC(=O)NC(=S)Nc1ccccc1NC(=S)NC(=O)OC`, the mutagenic call reads like this: under setting [5], “inactive; negative”; under setting [6], “inactive; negative”; under setting [7], “inactive; negative”; under setting [8], “inactive; negative”; under setting [17], “active; positive”; under setting [9], “inactive; negative”. Besides, the mutagenic call runs as follows: under setting [10], “inactive; negative”; under setting [18], “inactive; negative”; under setting [11], “inactive; negative”; under setting [19], “active; positive”; under setting [12], “inactive; negative”; under setting [13], “inactive; negative”. Besides, the mutagenic call is “inactive; negative” under setting [14]; “inactive; negative” under setting [15]; “inactive; negative” under setting [16]; “inactive; negative” (Test System: AMES SALMONELLA TYPHIMURIUM, Strain/Indicator: TA1537, Metabolic Activation: HAMSTER, LIVER, S-9, AROCLOR 1254 (30%), Method: PREINCUBATION); “inactive; negative” under setting [20]; “inactive; negative” (Test System: AMES SALMONELLA TYPHIMURIUM, Strain/Indicator: TA1537, Metabolic Activation: RAT, LIVER, S-9, AROCLOR 1254 (30%), Method: PREINCUBATION).

`CC1=CC[C@H]2C(C)=CC[C@@H](C(C)C)[C@@H]2C1`: the mutagenic call is “inactive; negative” (End Point: IN VITRO CHROMOSOMAL ABERRATIONS, Test System: CHINESE HAMSTER OVARY CELLS, Metabolic Activation: NONE); “inactive; negative” (End Point: IN VITRO CHROMOSOMAL ABERRATIONS, Test System: CHINESE HAMSTER OVARY CELLS, Metabolic Activation: RAT, LIVER, S-9, AROCLOR 1254); “inactive; negative” (Test System: AMES SALMONELLA TYPHIMURIUM, Strain/Indicator: TA98, Metabolic Activation: HAMSTER, LIVER, S-9, AROCLOR 1254, Method: PREINCUBATION); “inactive; negative” under setting [9]; “inactive; negative” (Test System: AMES SALMONELLA TYPHIMURIUM, Strain/Indicator: TA98, Metabolic Activation: RAT, LIVER, S-9, AROCLOR 1254, Method: PREINCUBATION); “inactive; negative” (Test System: AMES SALMONELLA TYPHIMURIUM, Strain/Indicator: TA100, Metabolic Activation: HAMSTER, LIVER, S-9, AROCLOR 1254, Method: PREINCUBATION). Moreover, the mutagenic call was “inactive; negative” under setting [12]; “inactive; negative” (Test System: AMES SALMONELLA TYPHIMURIUM, Strain/Indicator: TA100, Metabolic Activation: RAT, LIVER, S-9, AROCLOR 1254, Method: PREINCUBATION); “inactive; negative” (Test System: AMES SALMONELLA TYPHIMURIUM, Strain/Indicator: TA1535, Metabolic Activation: HAMSTER, LIVER, S-9, AROCLOR 1254, Method: PREINCUBATION); “inactive; negative” under setting [15]; “inactive; negative” (Test System: AMES SALMONELLA TYPHIMURIUM, Strain/Indicator: TA1535, Metabolic Activation: RAT, LIVER, S-9, AROCLOR 1254, Method: PREINCUBATION); “inactive; negative” (Test System: AMES SALMONELLA TYPHIMURIUM, Strain/Indicator: TA1537, Metabolic Activation: HAMSTER, LIVER, S-9, AROCLOR 1254, Method: PREINCUBATION). Besides, the mutagenic call runs as follows: under setting [20], “inactive; negative”; (Test System: AMES SALMONELLA TYPHIMURIUM, Strain/Indicator: TA1537, Metabolic Activation: RAT, LIVER, S-9, AROCLOR 1254, Method: PREINCUBATION) “inactive; negative”.

For `Nc1c(Cl)cc([N+](=O)[O-])cc1Cl`, the mutagenic call was “active; positive” under setting [17]; “active; positive” under setting [9]; “active; positive” under setting [18]; “inactive; negative” under setting [19]; “inactive; negative” under setting [12]; “inactive; negative” (Test System: AMES SALMONELLA TYPHIMURIUM, Strain/Indicator: TA100, Metabolic Activation: RAT, LIVER, S-9, AROCLOR 1254 (30%), Method: PREINCUBATION). Also, the mutagenic call (Test System: AMES SALMONELLA TYPHIMURIUM, Strain/Indicator: TA100, Metabolic Activation: RAT, LIVER, S-9, KANECHLOR 500, Method: PREINCUBATION) is “inactive; negative”.

Consider `O=C(O)Cc1ccc(O)c(O)c1`, for which the mutagenic call is “inactive; negative” (Test System: AMES SALMONELLA TYPHIMURIUM, Strain/Indicator: TA92, Metabolic Activation: NONE, Method: PREINCUBATION); “inactive; negative” under setting [6]; “inactive; negative” under setting [12]; “active; positive” (Test System: AMES SALMONELLA TYPHIMURIUM, Strain/Indicator: TA102, Metabolic Activation: NONE, Method: PREINCUBATION); “active; positive” (Test System: AMES SALMONELLA TYPHIMURIUM, Strain/Indicator: TA104, Metabolic Activation: NONE, Method: PREINCUBATION); “inactive; negative” under setting [15]. For the same molecule, the mutagenic call was “inactive; negative” under setting [20] and “active; positive” (Test System: CHINESE HAMSTER V-79, Strain/Indicator: V-79/6-THIOGUANINE, Metabolic Activation: NONE, Method: STANDARD PLATE).
